Reference: patent publication US20250099485A1, “COMPOSITIONS FOR PROMOTING HAIR GROWTH” (ESTETRA SRL, priority 2021, published 2025)

Legend:
Type in all cases: cell-based
[1] = test system: primary human dermal fibroblasts; test: Fibroblast monolayer scratch assay, human; settings: 10^−10 M to 10^−6 M, three female donors, compared with E2
Method: Human skin was transferred to the laboratory in holding media (DMEM containing 4% penicillin-streptomycin and Amphotericin B solution) within 30 minutes of collection. Once defatted, the skin was rinsed in HBSS with 4% PSA followed by DPBS without antibiotics, then cut into thin strips and floated on 0.2% Dispase II in DPBS overnight at 4° C., followed by manual separation of the epidermis from the dermis. Primary human epidermal keratinocytes and primary human dermal fibroblasts were then isolated.
Confluent wells of both primary keratinocytes and fibroblasts were subjected to a highly validated scratch wounding procedure (using a 1 mL sterile filter tip). Post-scratching, cells were rinsed with DPBS and cell-specific media containing treatments added to each well. Cells were imaged on a ptychographic live cell imaging platform (Livecyte 2TM, Phasefocus) for 24-48 hours. Automated tracking of individual unlabeled cells will be combined with 3D cell measurements to quantify a range of wound-relevant cell parameters including scratch closure rate.
Dose range finding experiments were conducted with E4 (10^−10M to 10^−6M) and E2 with and without Mitomycin C (MMC, to inhibit proliferation) using vehicle as negative controls. […]

[2] = test system: human epidermal keratinocytes; test: Wound healing gene expression RT-qPCR array, keratinocytes; settings: 10^−7M, 15 h, relative to ethanol control
Source text: The healing properties of E4 were investigated at the transcriptional level by studying gene expression changes by RT-qPCR. 84 genes qPCR arrays focusing on the wound healing process were used. These arrays contain genes important for the three phases of wound healing process, including extra-cellular matrix (ECM) remodeling factors, inflammatory cytokines and chemokines as well as growth factors and major signaling molecules. The changes in gene expression were interpreted in a dermo cosmetic context in order to highlight the potential benefits of the E4 towards wound healing.
After 24 h seeded on 25 cm^2 culture flasks (T25), cells were treated with E4 during 15 h. […]
The RNA concentration was determined by spectrophotometric measurement (QIAxpert, Qiagen) and the RNA quality was analyzed by capillarity electrophoresis (Agilent Bioanalyzer 2100—Agilent RNA 6000 Nano Kit). […]
The qPCR method was used to quantify the expression changes of specific markers in the cDNA populations. […]
The amplification of target genes was performed following the supplier's recommendations thanks to a “HotStart Taq DNA Polymerase” and to the use of SYBR Green as detection method. The SYBR Green is a marker emitting fluorescence once inserted between the paired bases of nucleic acids. The fluorescence intensity is thus directly proportional to the quantity of produced amplicons. […]

[3] = test system: mouse lymphoma cell line L5178Y TK^+/−; test: Generation of reactive oxygen species (ROS); settings: up to 3000 μM, 3 h exposure, vs vehicle control
Method: The objective of the study was to investigate the generation of reactive oxygen species (ROS) induced by the test item, estetrol (E4), in a mouse lymphoma cell line L5178Y TK^+/−.
L5178Y TK^+/− cells in logarithmic phase of growth were plated in black 96 well cell culture plates at 1×10^4 cells in 90 μL of cell culture media. Controls and test item in triplicate were applied to the cells as a 10× concentrate in 10 μL of a 10% ethanol solution in PBS (final concentration of ethanol on plate was 1%). Cells were incubated for 3 hours at 37° C., 5% CO2, and the generation of ROS was evaluated by fluorescence with a ROS reagent: the ROS reagent was freshly prepared by dissolving one ampoule of reagent (50 μg) in 70 μL DMSO and further diluting this with 2.1 mL of pre-warmed PBS. 10 μL of ROS reagent was added to each well and the plate were shaken for 30 seconds in the dark. The plates were incubated approximately at 37° C., 5% CO2 for 1 h 30 min and fluorescence was read on a plate scanner with excitation at 492 nm and emission at 520 nm.

[4] = test system: human hair follicles (HF); test: Hair follicle organ culture: hair shaft elongation ex vivo; settings: 300 nM, 3 μM, 30 μM, n=4 female donors
Method: 12-44 full-length frontotemporal hair follicles (HF) were obtained from four human female donors >50 years old. Donors were caucasian female subjects […], respectively (Donor 1: 12 temporal anagen HFs; Donor 2: 29; Donor 3: 44; Donor 4: 32). After microdissection from skin as described (Edelkamp et al., Methods Mol Biol, 2020, 2154:105-119; and Langan et al., Exp Dermatol, 2015, December; 24(12):903-1), HFs were placed in adequate culture medium and allowed a 24 h rest period to allow them to recover from the trauma of microdissection. Test substance (either vehicle (0.3% EtOH) or E4 at concentrations of 30 μM, 3 μM or 300 nM) was added to the medium at the end of the 24 h. Total culturing time was 5-7 days depending on the studied parameters and the experimental question. The experimental design for the hair follicle organ culture experiment is depicted in FIG. 12. […]
To determine the HF length, each HF was measured from the end of the bulb connective tissue sheath to the end of the distal outer root sheath (ORS), using a digital light microscope at 50× magnification (VHX 900 Keyence Corporation, Osaka, Japan) and the affiliated software (Edelkamp et al., Methods Mol Biol, 2020, 2154:105-119; and Langan et al., Exp Dermatol, 2015, December; 24(12):903-1). […] Elongation is expressed as millimeters of growth and/or as percentage elongation from the baseline measurement.

For C[C@]12CC[C@@H]3c4ccc(O)cc4CC[C@H]3[C@@H]1[C@@H](O)[C@@H](O)[C@@H]2O [E4, 1,3,5 (10)-estratrien-3,15alpha,16alpha,17beta-tetrol], the “in vitro wound closure, human fibroblasts scratch assay” value [1] was “promotes in vitro wound closure to a similar extent as E2”, the “MMP2 (Matrix metalloproteinase-2) expression, FC” value [2] was 1.1434 Fold Change (FC) and the “TIMP1 (Metalloproteinase inhibitor 1) expression, FC” value [2] was 0.8949 Fold Change (FC). For the same molecule, the “levels of ROS” value [3] was “dose-dependent decrease” and the hair shaft production [4] was “did not modify”.
